The molecules below were run against Mu-type opioid receptor (Bos taurus, UniProt P79350) (assay: Compound was tested for Inhibition of [3H]DAMGO (0.25 nM) binding to mu receptor from bovine striatal membranes).
Chain of Mu-type opioid receptor (P79350 whole entry): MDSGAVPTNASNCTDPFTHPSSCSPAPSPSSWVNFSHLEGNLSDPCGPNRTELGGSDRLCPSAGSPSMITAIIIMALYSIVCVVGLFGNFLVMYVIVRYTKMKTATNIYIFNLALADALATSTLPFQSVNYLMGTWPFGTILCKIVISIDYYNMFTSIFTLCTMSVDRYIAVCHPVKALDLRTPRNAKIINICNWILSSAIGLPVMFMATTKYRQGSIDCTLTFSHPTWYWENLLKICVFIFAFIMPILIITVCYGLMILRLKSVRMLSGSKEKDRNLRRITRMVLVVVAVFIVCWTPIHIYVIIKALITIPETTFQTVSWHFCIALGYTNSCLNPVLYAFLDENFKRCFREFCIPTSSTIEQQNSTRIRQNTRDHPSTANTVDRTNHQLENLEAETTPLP
`C=C(Cl)C(=O)N[C@@]12CCC(=O)[C@@H]3Oc4c(O)ccc5c4C31CCN(CC1CC1)C2C5` (some centres undefined) was tested, and the IC50 was 23.5 nM.
Work on `C=C(Cl)C(=O)N[C@@H]1CCC2C3Cc4ccc(O)c5c4C2(CCN3CC2CC2)[C@H]1O5` (some centres undefined) yielded an IC50 of 0.21 nM.
Work on `C=C(Cl)C(=O)N[C@@]12CCC(=O)[C@@H]3Oc4c(O)ccc5c4C31CCN(C)C2C5` (some centres undefined) yielded an IC50 of 5.8 nM.
In the case of `C=C(Cl)C(=O)N[C@@H]1CCC2C3Cc4ccc(O)c5c4C2(CCN3C)[C@H]1O5` (some centres undefined), the IC50 is reported as 0.56 nM.

Reference: ChEMBL document CHEMBL1153675, “Synthesis and opioid binding properties of 2-chloroacrylamido derivatives of 7,8-dihydromorphinans” (Bioorg Med Chem Lett, 1996)
